Data published in US5775329A, “Method and compounds for diagnosing coronary artery disease” (Gensia, Inc., priority 1995, dated 1998).

tested on: heart rate; test: Pharmacodynamics in conscious dogs during transdermal iontophoretic administration; format: in vivo, dog; settings: 10 min
Description: Pharmacodynamics in conscious dogs during transdermal iontophoretic administration
Dogs were trained to lie quietly on a table. Heart rate was monitored by ECG limb leads. Novel catecholamines were administered from a gel-filled electrode placed on the surface of the skin. A second electrode was placed on the skin to complete the electrical circuit. All compounds were delivered using a current of 0.25 mA for a period of 10 minutes. Heart rate was monitored by the ECG, and the T50 of the compound was measured as the time after termination of current required for heart rate to return 50% toward baseline rate. A "delay" time was also measured as the time required for heart rate to begin to fall, following termination of current.

| SMILES | Δ Heart Rate [beats/min] |
| --- | --- |
| N#CCCCNC[C@H](O)c1ccc(O)c(O)c1 [Example 1, 1-(R)-(3,4-dihydroxyphenyl)-2-(3-cyanopropylamino)ethanol] | 77 ± 1.3 |

same assay, conditions: iontophoresis 0.25 mA, 10 min; concentration (mM): isoproterenol 2.5, arbutamine 20, Ex 4 2, Ex 1 3, Ex 11 12, Ex 9 8, Ex 6 8

| SMILES | Delay (time required for heart rate to begin to fall following termination of current) [min] | T50 (time after termination of current for heart rate to return 50% toward baseline) [min] | Δ Heart Rate [beats/min] |
| --- | --- | --- | --- |
| Oc1ccc(CCCCNC[C@H](O)c2ccc(O)c(O)c2)cc1 [Arbutamine, reference compound] | 2.3 ± 1.4 | 24.8 ± 2.7 | 84 ± 5 |
| N#CCCCNC[C@H](O)c1ccc(O)c(O)c1 [Example 1, 1-(R)-(3,4-dihydroxyphenyl)-2-(3-cyanopropylamino)ethanol] | 1.9 ± 0.5 | 12.4 ± 1.3 | – |
| COCCC(C)NC[C@H](O)c1ccc(O)c(O)c1 (stereo partly drawn) [Example 4, 1-(R)-(3,4-dihydroxyphenyl)-2-(1-methyl-3-methoxypropylamino)ethanol] | 0.3 ± 0.1 | 9.1 ± 0.8 | 79 ± 8 |
| C[S+]([O-])CCCNC[C@H](O)c1ccc(O)c(O)c1 (stereo partly drawn) [Example 6, 1-(R)-(3,4-dihydroxyphenyl)-2-(3-methylsulfinylpropylamino)ethanol] | 0.9 ± 0.5 | 13.6 ± 2.3 | 93 ± 6 |
| CSCCCCNC[C@H](O)c1ccc(O)c(O)c1 [Example 9, 1-(R)-(3,4-dihydroxyphenyl)-2-(4-methylthiobutylamino)ethanol] | 0.6 ± 0.6 | 9.3 ± 0.5 | 82 ± 9 |
| CC(C)NCC(O)c1ccc(O)c(O)c1 (stereo not drawn) [Isoproterenol, reference compound] | 1.2 ± 0.5 | 12.2 ± 1.9 | 80 ± 11 |

target: T1, β1-adrenoreceptor (Cavia porcellus, UniProt H0W3H1); test: In vitro bioassay for β1-adrenergic activity (atrial rate); format: biochemical; settings: guinea pig atria, 37° C., pH=7.4, approximately four atrial preparations per compound
T1 construct: the hearts were excised and placed in ice-cold oxygenated Krebs Ringer buffer; tissue Charles River Laboratories (animals); host or cells: guinea pig atria (right and left, paired)
T1 sequence (H0W3H1 1-470): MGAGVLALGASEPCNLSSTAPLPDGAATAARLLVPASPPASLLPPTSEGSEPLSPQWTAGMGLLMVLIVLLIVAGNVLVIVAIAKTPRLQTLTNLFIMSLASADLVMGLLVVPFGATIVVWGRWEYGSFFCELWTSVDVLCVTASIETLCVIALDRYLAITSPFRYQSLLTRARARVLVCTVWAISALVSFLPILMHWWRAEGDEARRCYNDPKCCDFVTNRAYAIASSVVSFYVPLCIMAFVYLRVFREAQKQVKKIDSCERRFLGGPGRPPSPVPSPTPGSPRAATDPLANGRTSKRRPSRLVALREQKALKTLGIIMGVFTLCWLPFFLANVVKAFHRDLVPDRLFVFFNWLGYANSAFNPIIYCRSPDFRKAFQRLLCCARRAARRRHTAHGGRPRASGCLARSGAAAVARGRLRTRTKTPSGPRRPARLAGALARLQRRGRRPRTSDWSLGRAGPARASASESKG
Description: (§1) In Vitro Bioassays for β1 -, β2 - and α-Adrenoreceptor Activity
(§2) Functional evaluation of β1 -, β2 - and α-adrenoreceptor activity was performed using in vitro preparations of guinea pig atria, guinea pig trachea, and rabbit aorta, respectively (Young, et. al, Drug Dev. Res. 1994, 32, 19-28).
For the atrial assay of β1 -adrenergic activity, male Hartley guinea pigs (350-500 g; Charles River Laboratories, Wilmington, Mass.) were sacrificed by decapitation and the hearts were excised and placed in ice-cold oxygenated Krebs Ringer buffer. The atria were separated from the ventricles, leaving the right and left atria attached as a pair. A suture was placed at the apex of each atrial appendage for securing the tissue within the organ bath. The water-jacketed 25-ml organ baths were maintained at 37° C. and filled with Krebs Ringer solution aerated with 95% O2 and 5% CO2. The atrial pairs were equilibrated for at least 20 min after application of 1 g resting tension. β1 -adrenergic activity was assessed using atrial rate (beats per min) and amplitude of contraction (g tension) which were monitored at 1 and 5 min after dosing. Concentration-response curves (10^-11 -10^-4 M) were obtained by cumulative addition of drug to the bath. Following the completion of the dose response curves, isoproterenol was added to assess maximal response of each atrial preparation. EC50 values were calculated from the rate results of approximately four atrial preparations per compound.
(§3) In all experiments, tension was measured by isometric force transducers (52-9529, Harvard Apparatus, Natick, Mass.) coupled to an ink-writing recorder (Gould, Cleveland Ohio). The Krebs Ringer solution contained the following ingredients (mM): NaCl (118.1), NaHCO3 (25.0), D-glucose (11.1), KH2 PO4 (1.2), KCl (4.8), MgSO4 (1.2), CaCl2 (2.5), pH=7.4.

| SMILES | EC50 [nM] |
| --- | --- |
| N#CCCCNC[C@H](O)c1ccc(O)c(O)c1 [Example 1, 1-(R)-(3,4-dihydroxyphenyl)-2-(3-cyanopropylamino)ethanol] | 4.6 ± 0.7 |
| COCCC(C)NC[C@H](O)c1ccc(O)c(O)c1 (stereo partly drawn) [Example 4, 1-(R)-(3,4-dihydroxyphenyl)-2-(1-methyl-3-methoxypropylamino)ethanol] | 1.1 ± 0.2 |
| C[S+]([O-])CCCNC[C@H](O)c1ccc(O)c(O)c1 (stereo partly drawn) [Example 6, 1-(R)-(3,4-dihydroxyphenyl)-2-(3-methylsulfinylpropylamino)ethanol] | 14.9 ± 3.6 |
| CSCCCCNC[C@H](O)c1ccc(O)c(O)c1 [Example 9, 1-(R)-(3,4-dihydroxyphenyl)-2-(4-methylthiobutylamino)ethanol] | 2.9 ± 0.6 |

target: T2, β2-adrenoreceptor (Cavia porcellus, UniProt Q8K4Z4); test: In vitro bioassay for β2-adrenergic activity (relaxation of precontracted tracheal rings); format: biochemical; settings: guinea pig tracheal rings precontracted with carbachol, 37° C., pH=7.4, read-out: β2 (trachea)
T2 construct: the trachea was gently excised and placed in ice-cold aerated Krebs Ringer solution; from tissue; host or cells: guinea pig tracheal rings
T2 sequence (Q8K4Z4 whole entry): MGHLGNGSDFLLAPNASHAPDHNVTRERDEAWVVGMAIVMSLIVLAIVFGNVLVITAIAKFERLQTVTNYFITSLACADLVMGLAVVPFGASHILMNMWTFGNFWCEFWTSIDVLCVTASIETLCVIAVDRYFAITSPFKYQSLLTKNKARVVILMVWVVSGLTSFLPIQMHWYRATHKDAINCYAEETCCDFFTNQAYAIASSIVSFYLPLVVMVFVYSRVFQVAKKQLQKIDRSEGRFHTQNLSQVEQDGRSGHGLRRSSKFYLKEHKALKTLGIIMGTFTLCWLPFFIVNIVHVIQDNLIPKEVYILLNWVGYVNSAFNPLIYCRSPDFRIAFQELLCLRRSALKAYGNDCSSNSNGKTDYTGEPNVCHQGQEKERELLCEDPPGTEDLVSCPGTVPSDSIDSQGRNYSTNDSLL
Description: as §1, §2
For the tracheal assay of β2 -adrenergic activity, male Hartley guinea pigs (350-500 g) were sacrificed by carbon dioxide inhalation and the trachea was gently excised and placed in ice-cold aerated Krebs Ringer solution. β2 -adrenergic activity was assessed as the relaxation of rings following precontraction with carbachol. The trachea were cut into transverse rings containing two cartilage segments, and sutures were tied onto the cartilage on either side of the band of smooth muscle of each ring. The sutures were used to mount the individual rings in a 2.5-ml organ bath and to measure tension with an isometric force transducer. The water-jacketed organ baths maintained the preparation at 37° C. and were filled with Krebs Ringer solution aerated with 95% O2 and 5% CO2. The tracheal rings were equilibrated for 1 h following the application of 0.5 g resting tension. In some cases, equilibrated rings were then treated with the α2 -antagonist rauwolscine ([…]) and the β1 -antagonist atenolol ([…]) prior to precontraction with carbachol ([…]). Precontracted rings used as controls received treatments of saline only. Concentration-response curves were obtained by cumulative addition of drug to the organ bath, the concentration being increased only after the maximal relaxation to the preceding concentration was attained. After the final response was attained, isoproterenol ([…]) was added to assess maximal response for each preparation.
as §3

| SMILES | EC50 [nM] |
| --- | --- |
| N#CCCCNC[C@H](O)c1ccc(O)c(O)c1 [Example 1, 1-(R)-(3,4-dihydroxyphenyl)-2-(3-cyanopropylamino)ethanol] | 4.7 ± 1.2 |
| COCCC(C)NC[C@H](O)c1ccc(O)c(O)c1 (stereo partly drawn) [Example 4, 1-(R)-(3,4-dihydroxyphenyl)-2-(1-methyl-3-methoxypropylamino)ethanol] | 9.9 ± 1.3 |
| C[S+]([O-])CCCNC[C@H](O)c1ccc(O)c(O)c1 (stereo partly drawn) [Example 6, 1-(R)-(3,4-dihydroxyphenyl)-2-(3-methylsulfinylpropylamino)ethanol] | 140 ± 35.3 |
| CSCCCCNC[C@H](O)c1ccc(O)c(O)c1 [Example 9, 1-(R)-(3,4-dihydroxyphenyl)-2-(4-methylthiobutylamino)ethanol] | 20 ± 3.4 |

target: α-adrenoreceptor; test: In vitro bioassay for α-adrenergic activity (contraction of aortic rings); format: biochemical; settings: rabbit aortic rings, propranolol pretreated, 37° C., pH=7.4, read-out: α (aorta)
Description: as §1, §2
For evaluation of α-adrenergic activity, male New Zealand white rabbits (2.5 kg) (Simunek Rabbitry, Vista, Calif.) were sacrificed by carbon dioxide inhalation and the thoracic aorta was quickly excised and placed in Krebs Ringer solution. The aorta was cut into 3-mm rings which were subsequently suspended on hooks in organ baths. The 2.5-ml water-jacketed baths were maintained at 37° C. and filled with Krebs Ringer solution aerated with 95% O2 and 5% CO2. The vascular rings were equilibrated for 1 h following the application of a resting tension of 4 g, during which time the buffer was changed at 15-min intervals. All rings were pretreated with propranolol ([…]) 10 min prior to addition of test compounds. Concentration-response curves were obtained by cumulative addition of compound to the organ bath, the concentration being increased only after maximal response to the preceding concentration was attained. After the final response was attained for each test drug, norepinephrine ([…]) was added to assess maximal contraction. Responses are expressed as a percent of the maximal contraction by norepinephrine.
as §3

| SMILES | EC50 [nM] |
| --- | --- |
| N#CCCCNC[C@H](O)c1ccc(O)c(O)c1 [Example 1, 1-(R)-(3,4-dihydroxyphenyl)-2-(3-cyanopropylamino)ethanol] | 7500 ± 2840 |
| COCCC(C)NC[C@H](O)c1ccc(O)c(O)c1 (stereo partly drawn) [Example 4, 1-(R)-(3,4-dihydroxyphenyl)-2-(1-methyl-3-methoxypropylamino)ethanol] | > 100000 |
| C[S+]([O-])CCCNC[C@H](O)c1ccc(O)c(O)c1 (stereo partly drawn) [Example 6, 1-(R)-(3,4-dihydroxyphenyl)-2-(3-methylsulfinylpropylamino)ethanol] | > 10000 |
| CSCCCCNC[C@H](O)c1ccc(O)c(O)c1 [Example 9, 1-(R)-(3,4-dihydroxyphenyl)-2-(4-methylthiobutylamino)ethanol] | 1400 ± 82 |

tested on: heart rate (chronotropic response); test: Pharmacodynamics in conscious dogs during i.v. administration (chronotropic response and offset); format: in vivo, dog; settings: Example 13; i.v. stepwise ascending doses up to 100 ng/kg/min
Description: […] The T50 s were measured from end of infusion.
Pharmacodynamics in conscious dogs during i.v. administration
Dogs were trained to lie quietly on a table. Novel catecholamine compounds were administered via a venous catheter acutely placed in a leg vein. […] Heart rate was recorded by computer from ECG limb leads at 5 second intervals throughout the experiment. […]

| SMILES | Δ Heart Rate |
| --- | --- |
| N#CCCCNC[C@H](O)c1ccc(O)c(O)c1 [Example 1, 1-(R)-(3,4-dihydroxyphenyl)-2-(3-cyanopropylamino)ethanol] | 109 ± 5 |
| COCCC(C)NC[C@H](O)c1ccc(O)c(O)c1 (stereo partly drawn) [Example 4, 1-(R)-(3,4-dihydroxyphenyl)-2-(1-methyl-3-methoxypropylamino)ethanol] | 98 ± 8 |
| C[S+]([O-])CCCNC[C@H](O)c1ccc(O)c(O)c1 (stereo partly drawn) [Example 6, 1-(R)-(3,4-dihydroxyphenyl)-2-(3-methylsulfinylpropylamino)ethanol] | 93 ± 3 |

same assay, conditions: Example 13; i.v., dose reached 300 ng/kg/min

| SMILES | T50 [min] | Δ Heart Rate |
| --- | --- | --- |
| CSCCCCNC[C@H](O)c1ccc(O)c(O)c1 [Example 9, 1-(R)-(3,4-dihydroxyphenyl)-2-(4-methylthiobutylamino)ethanol] | 3.6 ± 0.34 | 93 ± 6 |

same assay, conditions: Example 13; i.v., from termination of infusion (100 ng/kg/min) to 50% fall in heart rate towards baseline

| SMILES | T50 [min] |
| --- | --- |
| N#CCCCNC[C@H](O)c1ccc(O)c(O)c1 [Example 1, 1-(R)-(3,4-dihydroxyphenyl)-2-(3-cyanopropylamino)ethanol] | 6.9 ± 0.6 |
| COCCC(C)NC[C@H](O)c1ccc(O)c(O)c1 (stereo partly drawn) [Example 4, 1-(R)-(3,4-dihydroxyphenyl)-2-(1-methyl-3-methoxypropylamino)ethanol] | 5.0 ± 0.7 |
| C[S+]([O-])CCCNC[C@H](O)c1ccc(O)c(O)c1 (stereo partly drawn) [Example 6, 1-(R)-(3,4-dihydroxyphenyl)-2-(3-methylsulfinylpropylamino)ethanol] | 5.4 ± 1.3 |

same assay, conditions: Table I; i.v., measured from end of infusion at highest dose 100 ng/kg/min

| SMILES | T50 [min] |
| --- | --- |
| Oc1ccc(CCCCNC[C@H](O)c2ccc(O)c(O)c2)cc1 [Arbutamine, reference compound] | 7.2 ± 1.1 |
| CC(C)NCC(O)c1ccc(O)c(O)c1 (stereo not drawn) [Isoproterenol, reference compound] | 5.5 ± 1.0 |

same assay, conditions: Table I; stable increase over baseline at highest dose (100 ng/kg/min i.v.), ascending doses

| SMILES | Δ Heart Rate [beats/min] |
| --- | --- |
| Oc1ccc(CCCCNC[C@H](O)c2ccc(O)c(O)c2)cc1 [Arbutamine, reference compound] | 84 ± 9 |
| CC(C)NCC(O)c1ccc(O)c(O)c1 (stereo not drawn) [Isoproterenol, reference compound] | 103 ± 12 |
